ChEMBL document CHEMBL4251714, “Isolation, Characterization, and Structure-Activity Relationship Analysis of Abietane Diterpenoids from Callicarpa bodinieri as Spleen Tyrosine Kinase Inhibitors” (J Nat Prod, 2018)
Blank lines part the entries; values can stand above or below the compound they belong to.

How the values were obtained:
[1] = biological target: T1, Tyrosine-protein kinase JAK3 (Homo sapiens, UniProt P52333); test: Inhibition of JAK3 (unknown origin) by mobility shift assay
T1 sequence (P52333 whole entry): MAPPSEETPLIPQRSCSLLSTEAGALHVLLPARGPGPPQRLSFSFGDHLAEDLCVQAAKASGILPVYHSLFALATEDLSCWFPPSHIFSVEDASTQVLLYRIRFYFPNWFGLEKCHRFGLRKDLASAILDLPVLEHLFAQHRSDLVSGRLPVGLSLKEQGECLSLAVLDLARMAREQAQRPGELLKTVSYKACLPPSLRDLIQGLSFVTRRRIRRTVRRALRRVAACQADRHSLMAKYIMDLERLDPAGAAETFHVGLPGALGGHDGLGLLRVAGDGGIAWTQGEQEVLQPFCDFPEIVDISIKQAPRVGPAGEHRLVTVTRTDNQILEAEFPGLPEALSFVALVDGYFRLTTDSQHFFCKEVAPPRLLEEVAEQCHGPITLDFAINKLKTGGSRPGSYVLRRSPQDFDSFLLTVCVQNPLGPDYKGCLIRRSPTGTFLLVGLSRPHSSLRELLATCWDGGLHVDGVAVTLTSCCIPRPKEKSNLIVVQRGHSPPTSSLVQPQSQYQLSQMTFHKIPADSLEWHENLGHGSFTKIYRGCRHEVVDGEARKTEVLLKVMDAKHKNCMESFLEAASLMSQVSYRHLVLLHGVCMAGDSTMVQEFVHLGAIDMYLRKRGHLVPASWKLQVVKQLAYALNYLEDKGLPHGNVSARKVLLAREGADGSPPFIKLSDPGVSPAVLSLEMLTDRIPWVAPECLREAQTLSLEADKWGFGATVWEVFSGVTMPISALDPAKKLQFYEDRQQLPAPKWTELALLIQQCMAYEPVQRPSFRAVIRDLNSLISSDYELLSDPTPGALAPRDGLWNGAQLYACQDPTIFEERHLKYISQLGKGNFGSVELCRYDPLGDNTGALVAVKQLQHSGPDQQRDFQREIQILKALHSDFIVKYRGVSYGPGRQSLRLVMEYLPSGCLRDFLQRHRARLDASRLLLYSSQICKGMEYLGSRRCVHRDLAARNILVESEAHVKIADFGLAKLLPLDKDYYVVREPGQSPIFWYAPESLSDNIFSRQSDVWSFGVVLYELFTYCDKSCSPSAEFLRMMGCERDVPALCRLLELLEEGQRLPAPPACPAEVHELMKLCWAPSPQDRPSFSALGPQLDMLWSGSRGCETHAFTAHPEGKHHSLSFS

Homo sapiens = species: Homo sapiens; test: Inhibition of PKA (unknown origin) at 50 ug/ml by mobility shift assay relative to control
[2] = biological target: T2, Tyrosine-protein kinase ZAP-70 (Homo sapiens) (UniProt P43403); test: Inhibition of ZAP70 (unknown origin) at 50 ug/ml by mobility shift assay relative to control
T2 sequence (whole entry): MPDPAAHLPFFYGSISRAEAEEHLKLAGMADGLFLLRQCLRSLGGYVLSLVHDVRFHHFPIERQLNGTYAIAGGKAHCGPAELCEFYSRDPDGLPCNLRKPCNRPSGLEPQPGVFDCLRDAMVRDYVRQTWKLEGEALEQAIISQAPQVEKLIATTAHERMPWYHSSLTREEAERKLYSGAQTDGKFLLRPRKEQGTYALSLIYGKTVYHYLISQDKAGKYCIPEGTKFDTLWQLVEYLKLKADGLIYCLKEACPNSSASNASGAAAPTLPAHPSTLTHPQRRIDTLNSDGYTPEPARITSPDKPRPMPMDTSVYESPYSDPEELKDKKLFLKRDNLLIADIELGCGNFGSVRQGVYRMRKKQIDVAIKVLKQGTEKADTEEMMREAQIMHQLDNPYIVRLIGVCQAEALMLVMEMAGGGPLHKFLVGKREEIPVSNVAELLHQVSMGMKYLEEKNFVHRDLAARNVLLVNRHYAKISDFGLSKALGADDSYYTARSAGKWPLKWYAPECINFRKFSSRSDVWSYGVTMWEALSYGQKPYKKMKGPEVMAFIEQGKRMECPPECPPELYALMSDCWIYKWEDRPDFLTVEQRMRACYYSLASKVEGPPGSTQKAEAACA

[3] = biological target: Serine/threonine-protein kinase pim-1 (Homo sapiens) (UniProt P11309); test: Inhibition of PIM1 (unknown origin) at 50 ug/ml by mobility shift assay relative to control
Chain of Serine/threonine-protein kinase pim-1 (Homo sapiens) (P11309 whole entry, looked up): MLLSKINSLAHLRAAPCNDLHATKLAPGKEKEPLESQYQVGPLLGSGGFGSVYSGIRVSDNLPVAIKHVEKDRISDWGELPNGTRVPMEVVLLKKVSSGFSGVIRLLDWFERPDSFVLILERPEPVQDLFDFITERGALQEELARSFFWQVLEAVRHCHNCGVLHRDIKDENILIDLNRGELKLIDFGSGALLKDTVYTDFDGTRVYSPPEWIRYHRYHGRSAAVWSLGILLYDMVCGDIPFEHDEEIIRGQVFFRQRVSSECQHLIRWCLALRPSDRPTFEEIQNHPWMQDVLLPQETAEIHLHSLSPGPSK

[4] = biological target: ALK tyrosine kinase receptor (Homo sapiens) (UniProt Q9UM73); test: Inhibition of ALK (unknown origin) at 50 ug/ml by mobility shift assay relative to control
Chain of ALK tyrosine kinase receptor (Homo sapiens) (Q9UM73 19-1620 limits assumed): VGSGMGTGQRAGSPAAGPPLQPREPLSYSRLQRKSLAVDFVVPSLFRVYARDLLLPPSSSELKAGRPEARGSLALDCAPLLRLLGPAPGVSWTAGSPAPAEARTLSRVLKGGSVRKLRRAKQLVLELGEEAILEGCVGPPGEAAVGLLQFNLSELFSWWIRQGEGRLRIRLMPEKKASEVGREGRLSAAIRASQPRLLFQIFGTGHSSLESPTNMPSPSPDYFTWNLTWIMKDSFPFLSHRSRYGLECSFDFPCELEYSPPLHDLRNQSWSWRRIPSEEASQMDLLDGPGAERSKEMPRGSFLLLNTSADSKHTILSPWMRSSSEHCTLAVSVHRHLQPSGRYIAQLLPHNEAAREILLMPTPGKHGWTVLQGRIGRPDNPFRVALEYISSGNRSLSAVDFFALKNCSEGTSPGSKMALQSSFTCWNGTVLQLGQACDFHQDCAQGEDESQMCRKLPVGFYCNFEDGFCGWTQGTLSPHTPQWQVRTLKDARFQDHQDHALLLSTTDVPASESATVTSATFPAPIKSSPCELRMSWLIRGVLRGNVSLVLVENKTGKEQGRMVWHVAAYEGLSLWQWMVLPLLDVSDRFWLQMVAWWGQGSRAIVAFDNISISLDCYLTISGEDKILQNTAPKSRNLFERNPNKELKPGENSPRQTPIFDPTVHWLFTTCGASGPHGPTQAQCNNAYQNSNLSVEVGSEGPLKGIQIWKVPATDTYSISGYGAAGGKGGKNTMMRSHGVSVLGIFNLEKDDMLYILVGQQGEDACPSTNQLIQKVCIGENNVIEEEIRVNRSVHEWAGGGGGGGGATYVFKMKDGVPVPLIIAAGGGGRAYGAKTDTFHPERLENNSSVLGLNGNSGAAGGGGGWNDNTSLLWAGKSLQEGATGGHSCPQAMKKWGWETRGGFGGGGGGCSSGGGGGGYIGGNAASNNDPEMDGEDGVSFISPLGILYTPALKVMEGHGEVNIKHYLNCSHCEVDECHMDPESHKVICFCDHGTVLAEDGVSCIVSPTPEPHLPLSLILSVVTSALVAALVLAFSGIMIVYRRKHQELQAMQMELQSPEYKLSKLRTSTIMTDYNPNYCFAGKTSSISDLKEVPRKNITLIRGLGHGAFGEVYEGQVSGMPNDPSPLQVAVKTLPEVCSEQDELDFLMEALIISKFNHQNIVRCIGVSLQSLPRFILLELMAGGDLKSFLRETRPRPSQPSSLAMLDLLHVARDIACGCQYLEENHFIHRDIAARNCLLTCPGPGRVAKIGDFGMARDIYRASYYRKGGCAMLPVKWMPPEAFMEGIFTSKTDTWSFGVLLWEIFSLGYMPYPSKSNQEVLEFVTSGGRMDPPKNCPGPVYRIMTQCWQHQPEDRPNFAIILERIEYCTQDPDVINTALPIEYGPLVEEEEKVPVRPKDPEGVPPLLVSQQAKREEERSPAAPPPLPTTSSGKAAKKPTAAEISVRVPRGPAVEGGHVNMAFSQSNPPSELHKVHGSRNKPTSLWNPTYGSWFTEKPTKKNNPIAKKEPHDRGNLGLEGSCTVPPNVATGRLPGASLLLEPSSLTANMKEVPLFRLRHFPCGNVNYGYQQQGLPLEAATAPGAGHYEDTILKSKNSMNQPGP

[5] = biological target: Proto-oncogene tyrosine-protein kinase Src (Homo sapiens) (UniProt P12931); test: Inhibition of SRC (unknown origin) at 50 ug/ml by mobility shift assay relative to control
Chain of Proto-oncogene tyrosine-protein kinase Src (Homo sapiens) (P12931 2-536 limits assumed): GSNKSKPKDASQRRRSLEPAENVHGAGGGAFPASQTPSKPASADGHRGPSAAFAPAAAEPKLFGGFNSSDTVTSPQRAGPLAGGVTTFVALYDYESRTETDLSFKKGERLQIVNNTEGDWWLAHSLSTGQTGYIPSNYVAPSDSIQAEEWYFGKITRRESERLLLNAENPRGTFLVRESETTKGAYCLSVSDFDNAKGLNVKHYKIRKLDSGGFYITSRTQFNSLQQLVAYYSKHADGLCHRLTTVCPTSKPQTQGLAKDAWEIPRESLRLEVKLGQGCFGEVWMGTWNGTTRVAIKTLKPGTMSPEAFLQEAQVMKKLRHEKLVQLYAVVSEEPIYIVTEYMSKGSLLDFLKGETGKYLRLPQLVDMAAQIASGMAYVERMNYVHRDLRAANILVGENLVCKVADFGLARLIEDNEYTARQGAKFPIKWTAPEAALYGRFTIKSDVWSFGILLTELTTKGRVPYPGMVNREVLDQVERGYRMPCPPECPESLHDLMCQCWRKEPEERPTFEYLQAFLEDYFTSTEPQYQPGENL

[6] = biological target: Protein kinase C theta (Homo sapiens) (UniProt Q04759); test: Inhibition of PKCtheta (unknown origin) at 50 ug/ml by mobility shift assay relative to control
Chain of Protein kinase C theta (Homo sapiens) (Q04759 whole entry, looked up): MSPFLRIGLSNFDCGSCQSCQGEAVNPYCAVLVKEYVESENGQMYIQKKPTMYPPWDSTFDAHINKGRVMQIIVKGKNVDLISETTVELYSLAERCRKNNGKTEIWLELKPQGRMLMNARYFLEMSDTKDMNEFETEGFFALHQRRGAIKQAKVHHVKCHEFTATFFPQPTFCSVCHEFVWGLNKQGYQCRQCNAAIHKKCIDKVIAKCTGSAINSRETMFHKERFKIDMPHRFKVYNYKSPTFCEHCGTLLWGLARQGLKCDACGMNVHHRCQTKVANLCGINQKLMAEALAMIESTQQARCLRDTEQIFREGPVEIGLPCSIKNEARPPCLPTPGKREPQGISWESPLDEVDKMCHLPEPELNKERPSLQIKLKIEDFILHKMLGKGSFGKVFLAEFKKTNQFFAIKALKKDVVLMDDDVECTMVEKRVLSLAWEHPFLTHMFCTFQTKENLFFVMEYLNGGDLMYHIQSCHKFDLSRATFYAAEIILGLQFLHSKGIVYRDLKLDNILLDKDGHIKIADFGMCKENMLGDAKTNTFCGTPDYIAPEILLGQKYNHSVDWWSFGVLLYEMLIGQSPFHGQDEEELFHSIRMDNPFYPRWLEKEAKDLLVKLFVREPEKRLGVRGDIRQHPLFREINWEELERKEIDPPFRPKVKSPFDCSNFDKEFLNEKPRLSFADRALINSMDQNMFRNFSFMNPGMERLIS

[7] = biological target: Tyrosine-protein kinase SYK (Homo sapiens) (UniProt P43405); test: Inhibition of SYK (unknown origin) at 50 ug/ml by mobility shift assay relative to control
[8] = biological target: T3, 3-phosphoinositide-dependent protein kinase 1 (Homo sapiens) (UniProt O15530); test: Inhibition of PDK1 (unknown origin) at 50 ug/ml by mobility shift assay relative to control
T3 sequence (whole entry): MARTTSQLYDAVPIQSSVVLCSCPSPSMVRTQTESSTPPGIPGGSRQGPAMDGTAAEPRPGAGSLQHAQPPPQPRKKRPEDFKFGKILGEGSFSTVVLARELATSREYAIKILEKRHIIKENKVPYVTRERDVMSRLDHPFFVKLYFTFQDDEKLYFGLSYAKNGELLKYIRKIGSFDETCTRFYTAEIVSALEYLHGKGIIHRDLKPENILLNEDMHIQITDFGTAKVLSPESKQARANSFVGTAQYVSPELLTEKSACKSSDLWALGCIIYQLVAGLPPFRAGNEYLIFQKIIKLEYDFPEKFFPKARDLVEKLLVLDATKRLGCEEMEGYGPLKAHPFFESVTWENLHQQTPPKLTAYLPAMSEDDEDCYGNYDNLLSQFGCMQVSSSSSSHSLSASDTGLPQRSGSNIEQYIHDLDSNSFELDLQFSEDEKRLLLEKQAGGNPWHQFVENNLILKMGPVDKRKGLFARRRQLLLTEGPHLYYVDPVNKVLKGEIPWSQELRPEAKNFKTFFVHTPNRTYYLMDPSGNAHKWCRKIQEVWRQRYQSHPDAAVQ

[9] = biological target: Glycogen synthase kinase-3 beta (Homo sapiens) (UniProt P49841); test: Inhibition of GSK3b (unknown origin) at 50 ug/ml by mobility shift assay relative to control
Chain of Glycogen synthase kinase-3 beta (Homo sapiens) (P49841 whole entry, looked up): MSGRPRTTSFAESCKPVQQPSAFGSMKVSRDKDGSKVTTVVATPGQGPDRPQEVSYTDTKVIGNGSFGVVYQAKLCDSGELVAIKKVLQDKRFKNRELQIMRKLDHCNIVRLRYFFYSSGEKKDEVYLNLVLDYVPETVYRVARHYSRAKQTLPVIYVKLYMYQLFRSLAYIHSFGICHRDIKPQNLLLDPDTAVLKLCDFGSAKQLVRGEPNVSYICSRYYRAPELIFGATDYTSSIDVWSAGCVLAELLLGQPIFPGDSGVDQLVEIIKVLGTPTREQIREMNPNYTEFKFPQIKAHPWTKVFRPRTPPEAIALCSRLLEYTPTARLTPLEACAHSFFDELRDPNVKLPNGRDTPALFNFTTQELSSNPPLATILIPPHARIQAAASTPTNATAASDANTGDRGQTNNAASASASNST

[10] = biological target: T4, JAK3 (Tyrosine-protein kinase JAK3) (Homo sapiens, UniProt P52333); test: Inhibition of JAK3 (unknown origin) at 50 ug/ml by mobility shift assay relative to control; conditions: JAK3 kinase (single protein, unknown origin)
T4 sequence (P52333 whole entry): T1 sequence (P52333 whole entry)

[11] = biological target: Focal adhesion kinase 1 (Homo sapiens) (UniProt Q05397); test: Inhibition of FAK (unknown origin) at 50 ug/ml by Lanthascreen assay relative to control
[12] = biological target: RAC-alpha serine/threonine-protein kinase (Homo sapiens) (UniProt P31749); test: Inhibition of AKT1 (unknown origin) at 50 ug/ml by mobility shift assay relative to control
Chain of RAC-alpha serine/threonine-protein kinase (Homo sapiens) (P31749 whole entry): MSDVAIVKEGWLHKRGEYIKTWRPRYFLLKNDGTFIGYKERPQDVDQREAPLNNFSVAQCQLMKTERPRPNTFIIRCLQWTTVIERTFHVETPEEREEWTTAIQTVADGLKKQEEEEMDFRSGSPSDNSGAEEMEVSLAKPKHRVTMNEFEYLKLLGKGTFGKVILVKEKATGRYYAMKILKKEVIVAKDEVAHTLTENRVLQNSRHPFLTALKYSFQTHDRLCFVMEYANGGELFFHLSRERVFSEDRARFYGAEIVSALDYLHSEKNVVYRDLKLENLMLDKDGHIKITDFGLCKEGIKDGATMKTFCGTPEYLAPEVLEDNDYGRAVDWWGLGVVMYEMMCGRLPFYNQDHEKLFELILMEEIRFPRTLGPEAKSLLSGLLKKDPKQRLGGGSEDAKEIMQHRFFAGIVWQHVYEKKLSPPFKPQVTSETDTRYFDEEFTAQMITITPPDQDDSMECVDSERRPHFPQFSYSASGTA

[13] = biological target: Serine/threonine-protein kinase B-raf (Homo sapiens) (UniProt P15056); test: Inhibition of BRAF (unknown origin) at 50 ug/ml by Lanthascreen assay relative to control
Chain of Serine/threonine-protein kinase B-raf (Homo sapiens) (P15056 whole entry): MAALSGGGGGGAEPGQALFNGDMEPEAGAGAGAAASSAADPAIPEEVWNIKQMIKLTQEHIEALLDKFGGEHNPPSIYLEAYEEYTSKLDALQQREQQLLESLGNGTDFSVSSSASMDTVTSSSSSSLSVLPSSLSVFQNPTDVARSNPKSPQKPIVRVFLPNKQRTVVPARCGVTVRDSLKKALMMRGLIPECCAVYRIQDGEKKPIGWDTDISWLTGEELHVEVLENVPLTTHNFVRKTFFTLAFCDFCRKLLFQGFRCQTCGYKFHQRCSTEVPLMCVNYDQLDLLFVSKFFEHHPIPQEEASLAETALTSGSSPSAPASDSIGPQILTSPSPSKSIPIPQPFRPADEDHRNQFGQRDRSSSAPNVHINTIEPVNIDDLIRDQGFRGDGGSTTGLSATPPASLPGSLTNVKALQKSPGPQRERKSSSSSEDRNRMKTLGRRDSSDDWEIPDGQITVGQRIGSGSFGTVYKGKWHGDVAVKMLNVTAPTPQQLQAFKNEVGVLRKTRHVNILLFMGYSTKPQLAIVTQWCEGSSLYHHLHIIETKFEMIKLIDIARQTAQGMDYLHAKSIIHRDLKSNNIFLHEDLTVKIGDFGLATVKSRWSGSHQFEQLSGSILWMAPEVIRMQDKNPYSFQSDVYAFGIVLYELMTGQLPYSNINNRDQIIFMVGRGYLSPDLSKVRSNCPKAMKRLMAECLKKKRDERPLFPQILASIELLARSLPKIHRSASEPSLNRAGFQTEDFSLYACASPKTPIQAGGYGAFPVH

[14] = Inhibition of PKA (unknown origin) by mobility shift assay; parameters: species or system Homo sapiens

SMILES: CC(C)c1cc2c(cc1O)[C@@]1(C)CCC[C@@](C)(C=O)[C@@H]1CC2 [18-OXOFERRUGINOL]
- IC50 [1]: > 100 µM

SMILES: CC(C)c1ccc2c(c1)CC[C@H]1[C@](C)(C(=O)O)CCC[C@]21C [DEHYDROABIETIC ACID]
- inhibition (Homo sapiens): 69.9%
- inhibition [2]: 52.5%
- inhibition [3]: 10.7%
- inhibition [4]: 17.6%
- inhibition [5]: 61.2%
- IC50 [1]: > 100 µM
- inhibition [6]: 0.9%
- inhibition [7]: 81%
- inhibition [8]: 46.1%
- inhibition [9]: 20.1%
- inhibition at 50 ug/ml [10]: 74.9%
- inhibition [11]: 67.1%
- inhibition [12]: 53.6%
- inhibition [13]: -7.3%

SMILES: CN[C@@H]1C[C@H]2O[C@@](C)([C@@H]1OC)n1c3ccccc3c3c4c(c5c6ccccc6n2c5c31)C(=O)NC4
- IC50 [14]: 0.0022 µM

Next, values leading:

- IC50 [1]: > 100 µM
SMILES: CC(=O)c1ccc2c(c1)CC[C@H]1[C@@](CO)(C(=O)O)CCC[C@]21C

- IC50 [1]: > 100 µM
SMILES: C=C(C)c1ccc2c(c1)CC[C@H]1[C@@](CO)(C(=O)O)CCC[C@]21C

- IC50 [1]: > 100 µM
SMILES: CC(C)(O)c1ccc2c(c1)CC[C@H]1[C@](C)(C(=O)O)CCC[C@]21C

- IC50 [1]: > 100 µM
SMILES: CC(C)c1ccc2c(c1)CC[C@H]1[C@@](CO)(C(=O)O)CCC[C@]21C
